From patent US20040063662A1, “Selenophene anti-tumor agents” (priority 1996, published 2004)

Legend:
NCI-H460 = assay: NCI human tumor cell panel: NCI-H460 (Non-Small Cell Lung Cancer); assay type: cell-based
MCF7/ADR-RES = assay: NCI human tumor cell panel: MCF7/ADR-RES (Breast Cancer); assay type: cell-based
HOP-92 = assay: NCI human tumor cell panel: HOP-92 (Non-Small Cell Lung Cancer)
NCI-H522 = assay: NCI human tumor cell panel: NCI-H522 (Non-Small Cell Lung Cancer)
RPMI-8226 = assay: NCI human tumor cell panel: RPMI-8226 (Leukemia); assay type: cell-based
OVCAR-3 = assay: NCI human tumor cell panel: OVCAR-3 (Ovarian Cancer); assay type: cell-based
SNB-19 = assay: NCI human tumor cell panel: SNB-19 (CNS Cancer); assay type: cell-based
LOX IMVI = assay: NCI human tumor cell panel: LOX IMVI (Melanoma); assay type: cell-based
TK-10 = assay: NCI human tumor cell panel: TK-10 (Renal Cancer); assay type: cell-based
EKVX = assay: NCI human tumor cell panel: EKVX (Non-Small Cell Lung Cancer); assay type: cell-based
UO-31 = assay: NCI human tumor cell panel: UO-31 (Renal Cancer); assay type: cell-based
OVCAR-8 = assay: NCI human tumor cell panel: OVCAR-8 (Ovarian Cancer); assay type: cell-based
KM12 = assay: NCI human tumor cell panel: KM12 (Colon Cancer); assay type: cell-based
A549/ATCC = assay: NCI human tumor cell panel: A549/ATCC (Non-Small Cell Lung Cancer); assay type: cell-based
K-562 = assay: NCI human tumor cell panel: K-562 (Leukemia); assay type: cell-based
A498 = assay: NCI human tumor cell panel: A498 (Renal Cancer); assay type: cell-based
SF-295 = assay: NCI human tumor cell panel: SF-295 (CNS Cancer); assay type: cell-based
OVCAR-4 = assay: NCI human tumor cell panel: OVCAR-4 (Ovarian Cancer); assay type: cell-based
SF-539 = assay: NCI human tumor cell panel: SF-539 (CNS Cancer); assay type: cell-based
UACC-257 = assay: NCI human tumor cell panel: UACC-257 (Melanoma); assay type: cell-based
786-0 = assay: NCI human tumor cell panel: 786-0 (Renal Cancer); assay type: cell-based
SK-MEL-28 = assay: NCI human tumor cell panel: SK-MEL-28 (Melanoma); assay type: cell-based
PC-3 = assay: NCI human tumor cell panel: PC-3 (Prostate Cancer); assay type: cell-based
OVCAR-5 = assay: NCI human tumor cell panel: OVCAR-5 (Ovarian Cancer); assay type: cell-based
SR = assay: NCI human tumor cell panel: SR (Leukemia); assay type: cell-based
IGROV1 = assay: NCI human tumor cell panel: IGROV1 (Ovarian Cancer); assay type: cell-based
MALME-3M = assay: NCI human tumor cell panel: MALME-3M (Melanoma); assay type: cell-based; conditions: Malme-3M
[1] = read-out: Log10 GI50 (converted)
[2] = read-out: Log10 TGI (converted)

OCc1ccc(-c2ccc(-c3ccc[se]3)[se]2)[se]1 [compound 675246] was tested, and the GI50 (NCI-H460; NCI-H460, read-out: Log10 GI50 (converted)) was 0.324 µM, the IC (TGI) (NCI-H460; NCI-H460, read-out: Log10 TGI (converted)) was 3.63 µM and the GI50 (MCF7/ADR-RES; [1]) was 5.13 µM. For the same compound, the IC (TGI) (MCF7/ADR-RES; [2]) was 46.8 µM, the GI50 (HOP-92; HOP-92, read-out: Log10 GI50 (converted)) was 2.63 µM and the IC (TGI) (HOP-92; HOP-92, read-out: Log10 TGI) was 11.2 µM. The GI50 (NCI-H522; NCI-H522, read-out: Log10 GI50 (converted)) was 2.45 µM, the IC (TGI) (NCI-H522; NCI-H522, read-out: Log10 TGI) was 6.61 µM and the GI50 (RPMI-8226; RPMI-8226, read-out: Log10 GI50 (converted)) was 7.41 µM. For the same compound, the IC (TGI) (RPMI-8226; RPMI-8226, read-out: Log10 TGI) was greater than 100 µM, the GI50 (OVCAR-3; OVCAR-3, read-out: Log10 GI50 (converted)) was 0.0603 µM and the IC (TGI) (OVCAR-3; OVCAR-3, read-out: Log10 TGI (converted)) was 1.29 µM. The GI50 (SNB-19; SNB-19, read-out: Log10 GI50 (converted)) was 12.3 µM, the IC (TGI) (SNB-19; SNB-19, read-out: Log10 TGI (converted)) was 52.5 µM and the GI50 (LOX IMVI; [1]) was 3.63 µM. It also gave an IC (TGI) (LOX IMVI; [2]) of 9.77 µM, a GI50 (TK-10; TK-10, read-out: Log10 GI50 (converted)) of 1.91 µM and an IC (TGI) (TK-10; TK-10, read-out: Log10 TGI (converted)) of 10.7 µM. For the same compound, the GI50 (EKVX; [1]) was 5.5 µM, the IC (TGI) (EKVX; [2]) was 17.4 µM and the GI50 (UO-31; UO-31, read-out: Log10 GI50 (converted)) was 6.17 µM. For the same compound, the IC (TGI) (UO-31; UO-31, read-out: Log10 TGI (converted)) was 38.9 µM, the GI50 (OVCAR-8; OVCAR-8, read-out: Log10 GI50 (converted)) was 5.01 µM and the IC (TGI) (OVCAR-8; OVCAR-8, read-out: Log10 TGI (converted)) was 33.1 µM. For the same compound, the GI50 (KM12; KM12, read-out: Log10 GI50 (converted)) was 4.17 µM, the IC (TGI) (KM12; KM12, read-out: Log10 TGI (converted)) was 17 µM and the GI50 (A549/ATCC; [1]) was 10.5 µM. For the same compound, the IC (TGI) (A549/ATCC; [2]) was 22.4 µM, the GI50 (K-562; K562, K-562, read-out: Log10 GI50 (converted)) was 0.372 µM and the IC (TGI) (K-562; K562, K-562, read-out: Log10 TGI (converted)) was 7.59 µM. The GI50 (A498; A498, read-out: Log10 GI50 (converted)) was 0.0389 µM, the IC (TGI) (A498; A498, read-out: Log10 TGI (converted)) was 0.166 µM and the GI50 (SF-295; SF-295, read-out: Log10 GI50 (converted)) was 10.7 µM. The IC (TGI) (SF-295; SF-295, read-out: Log10 TGI (converted)) was 27.5 µM, the GI50 (OVCAR-4; OVCAR-4, read-out: Log10 GI50 (converted)) was 0.575 µM and the IC (TGI) (OVCAR-4; OVCAR-4, read-out: Log10 TGI (converted)) was 12.3 µM. The GI50 (SF-539; SF-539, read-out: Log10 GI50 (converted)) was 12.3 µM, the IC (TGI) (SF-539; SF-539, read-out: Log10 TGI (converted)) was 25.1 µM and the GI50 (UACC-257; UACC-257, read-out: Log10 GI50 (converted)) was 0.0501 µM. For the same compound, the IC (TGI) (UACC-257; UACC-257, read-out: Log10 TGI (converted)) was 0.224 µM, the GI50 (786-0; 786-0, read-out: Log10 GI50 (converted)) was 2.19 µM and the IC (TGI) (786-0; 786-0, read-out: Log10 TGI (converted)) was 5.25 µM. The GI50 (SK-MEL-28; SK-MEL-28, read-out: Log10 GI50 (converted)) was 7.41 µM, the IC (TGI) (SK-MEL-28; SK-MEL-28, read-out: Log10 TGI (converted)) was 21.9 µM and the GI50 (PC-3; PC-3, read-out: Log10 GI50 (converted)) was 3.8 µM. It also gave an IC (TGI) (PC-3; PC-3, read-out: Log10 TGI (converted)) of 13.2 µM, a GI50 (OVCAR-5; OVCAR-5, read-out: Log10 GI50 (converted)) of 0.182 µM and an IC (TGI) (OVCAR-5; OVCAR-5, read-out: Log10 TGI (converted)) of 25.1 µM. The GI50 (SR; [1]) was 6.61 µM, the IC (TGI) (SR; [2]) was greater than 100 µM and the GI50 (IGROV1; IGROV-1, IGROV1, read-out: Log10 GI50 (converted)) was 0.0537 µM. It also gave an IC (TGI) (IGROV1; IGROV-1, IGROV1, read-out: Log10 TGI (converted)) of 2.24 µM, a GI50 (MALME-3M; [1]) of 6.17 µM and an IC (TGI) (MALME-3M; [2]) of 19.5 µM.
